Source: patent US20120021434A1, “METHOD FOR TREATING B CELL REGULATED AUTOIMMUNE DISORDERS” (Synta Pharmaceuticals Corp., priority 2005, published 2012)

Assays:
Assay type in all cases: cell-based
[1] = system: NF-κB p65; experiment: Kinetics of p65 nuclear translocation in LPS-stimulated THP1 cells (immunoblot, densitometry); details: 100 nM
Protocol: (§1) Compound 50 impairs nuclear accumulation of c-Rel and slightly reduces nuclear accumulation of p50. We examined the nuclear translocation kinetics of NF-κB family members in LPS stimulated cells treated with Compound 50. THP1 cells were stimulated with LPS in either the presence or absence of 100 nM Compound 50, and the distribution of the NF-κB Rel family members was determined by immunoblotting nuclear (n.p.) extracts collected at 5 min, 15 min, 30 min, 1 h, 3 h and 6 h post-treatment. In response to LPS stimulation, p50 translocated into the nucleus as early as 5 minutes post-stimulation and accumulates as time goes on (FIG. 4, immunoblots and FIG. 5 densitometry). […] The experiment examining p65 nuclear translocation is shown in FIG. 6 (immunoblots) and FIG. 7 (densitometry). In LPS stimulated cells, p65 translocated into the nucleus as early as 5 minutes post-stimulation and accumulated to maximum levels at 15-30 minutes post-stimulation. Treatment of LPS-stimulated cells with Compound 50 had no effect on the kinetics of p65 nuclear entry.

[2] = system: NF-κB p50; experiment: Kinetics of p50 nuclear translocation in LPS-stimulated THP1 cells (immunoblot, densitometry); details: 100 nM
Protocol: as §1

[3] = system: p65; experiment: LPS/IFNγ-induced phosphorylation of p65 in THP1 cells (immunoblot); details: THP1, 100 nM, residues Ser-276, Ser-468 and Ser-927
Protocol: In this study, we examined the effect of Compound 50 on LPS-induced phosphorylation of the NF-κB members p65 and p105/p50. THP1 monocytic cells were stimulated with IFNγ plus LPS in the presence or absence of 100 nM Compound 50 (30 min, 1 h and 3 h) and whole-cell extracts were immunoblotted using anti-phospho p65 and p105/p50 antibodies to detect the phosphorylated forms of these proteins. […] LPS/IFNγ induced phosphorylation of p65 as early as 30 minutes on residues Ser-276, Ser-468 and […]. Compound 50 had no effect on LPS/IFNγ induced phosphorylation at these sites. […] LPS/IFNγ induced phosphorylation of p105 as early as 30 minutes on residues Ser-927 and Ser-933. Compound 50 had no effect on LPS/IFNγ induced phosphorylation at these sites.

Cc1cccc(/C=N/Nc2cc(N3CCOCC3)nc(OCCc3ccccn3)n2)c1 [Compound 50, N-(3-Methyl-benzylidene)-N′-[6-morpholin-4-yl-2-(2-pyridin-2-yl-ethoxy)-pyrimidin-4-yl]-hydrazine]
kinetics of p65 nuclear entry [1]: no effect | level of nuclear p65 relative to untreated cells ([1]; 6 hours): small increase | kinetics of p50 nuclear entry ([2]; 5 minutes to 1 hr post-stimulation): no effect | nuclear p50 protein levels ([2]; 3 hours): small decrease | LPS/IFNγ induced phosphorylation of p65 [3]: no effect
